≈ marks a conversion by molar mass, not a printed value. Like-named read-outs stand apart in the source and are kept apart here. Starred links: 1 amine or outer side, 2 acyl side, 3 side chain; linkers in the order of their positions; H or OH if unused. Positions of bridges follow the written chain, without caps; N, C: chain ends. Residues, ends and D or L forms follow the SMILES beside them. *: point of attachment. C18 diacid = O=C(O)CCCCCCCCCCCCCCCCC(=O)*; γGlu = O=C(O)[C@H](CCC(=O)[*:2])N[*:1]; AEEA = NCCOCCOCC(=O)O
Tests used:
[1] = Solubility of CNP compounds at pH 4.0 and pH 6.5; assay type: physicochemical
Method in brief: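 Supernatant peptide concentration was quantified by CAD after overnight room-temperature equilibration of incompletely dissolved samples. Nominal loading was ≥4000-5000 nmol/mL. Media were pH 4.0 sodium acetate 5 mM/glycerol 250 mM, or pH 6.5 sodium phosphate 8 mM/glycerol 23 mg/mL reached by stepwise NaOH addition.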

[2] = molecular target: T1, human natriuretic peptide receptor 2 (hNPR2) (Homo sapiens, UniProt P20594); test: In vitro hNPR2 activity assay (cGMP GloSensor reporter, HEK293); assay type: cell-based; conditions: potency relative to CNP22 (0065)
T1 construct: expressed in transfected cells; host or cells: HEK293 (ATCC CRL-1573), clone 35, co-transfected with pGloSensor-42F
T1 sequence (P20594 23-1047): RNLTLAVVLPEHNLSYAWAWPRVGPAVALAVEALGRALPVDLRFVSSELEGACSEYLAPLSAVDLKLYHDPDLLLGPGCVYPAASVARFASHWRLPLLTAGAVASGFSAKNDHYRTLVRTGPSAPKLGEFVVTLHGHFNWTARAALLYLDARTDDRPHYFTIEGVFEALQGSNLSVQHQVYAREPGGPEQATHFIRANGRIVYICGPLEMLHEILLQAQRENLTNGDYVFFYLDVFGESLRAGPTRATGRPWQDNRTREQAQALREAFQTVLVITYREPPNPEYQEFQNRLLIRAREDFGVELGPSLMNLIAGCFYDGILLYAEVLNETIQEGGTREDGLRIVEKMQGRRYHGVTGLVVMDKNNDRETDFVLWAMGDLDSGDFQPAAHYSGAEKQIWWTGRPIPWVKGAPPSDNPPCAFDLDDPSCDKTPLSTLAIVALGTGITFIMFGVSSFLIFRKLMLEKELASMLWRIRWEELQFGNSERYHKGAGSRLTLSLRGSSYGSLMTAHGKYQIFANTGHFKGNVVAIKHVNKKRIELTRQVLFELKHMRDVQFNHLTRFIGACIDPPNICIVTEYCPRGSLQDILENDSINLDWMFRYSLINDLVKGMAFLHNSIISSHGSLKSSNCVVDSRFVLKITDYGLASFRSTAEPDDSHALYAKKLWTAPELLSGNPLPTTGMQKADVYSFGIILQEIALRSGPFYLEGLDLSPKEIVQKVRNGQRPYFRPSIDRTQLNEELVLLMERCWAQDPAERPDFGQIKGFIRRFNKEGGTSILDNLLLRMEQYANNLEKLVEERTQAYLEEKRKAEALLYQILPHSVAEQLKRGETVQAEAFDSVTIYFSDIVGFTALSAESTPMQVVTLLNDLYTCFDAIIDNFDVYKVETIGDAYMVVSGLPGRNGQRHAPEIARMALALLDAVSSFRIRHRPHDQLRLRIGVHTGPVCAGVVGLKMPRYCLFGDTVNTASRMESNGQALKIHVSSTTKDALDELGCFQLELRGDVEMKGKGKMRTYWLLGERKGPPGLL
Method in brief: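 Potency is the EC50 from a four-parameter logistic fit, also expressed relative to the in-plate CNP22 control (×100), with at least two replicates. Compounds (ten concentrations, […], HSA-free diluent with 1% OVA, 0.01% Tween20) were incubated 30 min at 37 °C on HEK293 cells co-expressing hNPR2 and a GloSensor cGMP luciferase. Luminescence detected with Bright-Glo.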

[3] = 5 mM sodium acetate, 250 mM glycerol, pH 4.0, room temperature, read-out: Solubility at pH 4.0
[4] = 8 mM sodium phosphate, 23 mg/mL glycerol, pH 6.5, room temperature, read-out: Solubility at pH 6.5

Row | SMILES | solubility [1, 3] | hNPR2 0% HSA. [EC50% rel CNP] [2] | solubility [1, 4]
1 | CC[C@H](C)[C@@H]1NC(=O)[C@H](CCCNC(=N)N)NC(=O)[C@H](CC(=O)O)NC(=O)[C@H](CC(C)C)NC(=O)[C@@H]2CCCN2C(=O)[C@H](CC(C)C)NC(=O)CNC(=O)[C@H](Cc2ccccc2)NC(=O)[C@@H](NC(=O)CNC(=O)[C@H](CCC(N)=O)NC(=O)[C@H](CO)NC(=O)[C@H](CO)NC(=O)CNC(=O)[C@H](Cc2c[nH]cn2)NC(=O)[C@H](Cc2c[nH]cn2)NC(=O)[C@H](CCC(N)=O)NC(=O)[C@H](C)NC(=O)CNC(=O)[C@H](Cc2c[nH]cn2)NC(=O)[C@H](Cc2ccc(O)cc2)NC(=O)[C@H](CCCCN)NC(=O)[C@H](Cc2c[nH]cn2)NC(=O)[C@H](C)NC(=O)[C@H](CCC(N)=O)NC(=O)[C@@H]2CCCN2C(=O)[C@H](Cc2c[nH]cn2)NC(=O)[C@H](CCC(=O)O)NC(=O)[C@H](CCC(N)=O)NC(=O)COCCOCCNC(=O)COCCOCCNC(=O)CC[C@H](NC(=O)CCCCCCCCCCCCCCCCC(=O)O)C(=O)O)CSSC[C@@H](C(=O)O)NC(=O)CNC(=O)[C@H](CC(C)C)NC(=O)CNC(=O)[C@H](CO)NC(=O)[C@H](CC(C)C)NC(=O)[C@H](CO)NC(=O)CNC1=O [compound 1381] ({C18 diacid-γGlu-AEEA-AEEA}-QEHPQAHKYHGAQHHGSSQGCFGLPLDRIGSLSGLGC-OH; disulfide 21-37) | 9 mM (≈ 41.6 mg/mL) | 38.7% | –
2 | CC[C@H](C)[C@@H]1NC(=O)[C@H](CCCNC(=N)N)NC(=O)[C@H](CC(=O)O)NC(=O)[C@H](CC(C)C)NC(=O)[C@@H]2CCCN2C(=O)[C@H](CC(C)C)NC(=O)CNC(=O)[C@H](Cc2ccccc2)NC(=O)[C@@H](NC(=O)CNC(=O)[C@H](CCC(N)=O)NC(=O)[C@H](CO)NC(=O)[C@H](CC(C)C)NC(=O)CNC(=O)[C@H](CCCCN)NC(=O)[C@H](CCCCN)NC(=O)[C@H](CCC(N)=O)NC(=O)[C@H](C)NC(=O)CNC(=O)[C@H](CCCCN)NC(=O)[C@H](Cc2ccc(O)cc2)NC(=O)[C@H](CCCCN)NC(=O)[C@H](Cc2c[nH]cn2)NC(=O)[C@H](C)NC(=O)[C@H](CCC(N)=O)NC(=O)[C@@H]2CCCN2C(=O)[C@H](Cc2c[nH]cn2)NC(=O)[C@H](CCC(=O)O)NC(=O)[C@H](CCC(N)=O)NC(=O)COCCOCCNC(=O)COCCOCCNC(=O)CC[C@H](NC(=O)CC[C@H](NC(=O)CC[C@H](NC(=O)CCCCCCCCCCCCCCCCC(=O)O)C(=O)O)C(=O)O)C(=O)O)CSSC[C@@H](C(=O)O)NC(=O)CNC(=O)[C@H](CC(C)C)NC(=O)CNC(=O)[C@H](CO)NC(=O)[C@H](CC(C)C)NC(=O)[C@H](CO)NC(=O)CNC1=O [compound 1382] ({C18 diacid-γGlu-γGlu-γGlu-AEEA-AEEA}-QEHPQAHKYKGAQKKGLSQGCFGLPLDRIGSLSGLGC-OH; disulfide 21-37) | – | 43.8% | 3.18 mM (≈ 15.5 mg/mL)
3 | CC[C@H](C)[C@@H]1NC(=O)[C@H](CCCNC(=N)N)NC(=O)[C@H](CC(=O)O)NC(=O)[C@H](CC(C)C)NC(=O)[C@@H]2CCCN2C(=O)[C@H](CC(C)C)NC(=O)CNC(=O)[C@H](Cc2ccccc2)NC(=O)[C@@H](NC(=O)CNC(=O)[C@H](CO)NC(=O)[C@H](CO)NC(=O)[C@H](CC(C)C)NC(=O)CNC(=O)[C@H](CCCCN)NC(=O)[C@H](CCCCN)NC(=O)[C@H](CCC(N)=O)NC(=O)[C@H](C)NC(=O)CNC(=O)[C@H](CCCCN)NC(=O)[C@H](Cc2ccc(O)cc2)NC(=O)[C@H](CCCCN)NC(=O)[C@H](CCCNC(=N)N)NC(=O)[C@H](C)NC(=O)CC[C@H](NC(=O)CC[C@H](NC(=O)CC[C@H](NC(=O)CC[C@H](NC(=O)CCCCCCCCCCCCCCCCC(=O)O)C(=O)O)C(=O)O)C(=O)O)C(=O)O)CSSC[C@@H](C(=O)O)NC(=O)CNC(=O)[C@H](CC(C)C)NC(=O)CNC(=O)[C@H](CO)NC(=O)[C@H](CC(C)C)NC(=O)[C@H](CO)NC(=O)CNC1=O [compound 1386] ({C18 diacid-γGlu-γGlu-γGlu-γGlu}-ARKYKGAQKKGLSSGCFGLPLDRIGSLSGLGC-OH; disulfide 16-32) | – | 36.9% | 0.49 mM (≈ 2 mg/mL)
4 | CC[C@H](C)[C@@H]1NC(=O)[C@H](CCCNC(=N)N)NC(=O)[C@H](CC(=O)O)NC(=O)[C@H](CC(C)C)NC(=O)[C@@H]2CCCN2C(=O)[C@H](CC(C)C)NC(=O)CNC(=O)[C@H](Cc2ccccc2)NC(=O)[C@@H](NC(=O)CNC(=O)[C@H](CO)NC(=O)[C@H](CO)NC(=O)[C@H](CC(C)C)NC(=O)CNC(=O)[C@H](CCCCN)NC(=O)[C@H](CCCCN)NC(=O)[C@H](CCC(N)=O)NC(=O)[C@H](C)NC(=O)CNC(=O)[C@H](CCCCN)NC(=O)[C@H](Cc2ccc(O)cc2)NC(=O)[C@H](CCCCN)NC(=O)[C@H](CCCNC(=N)N)NC(=O)[C@H](C)NC(=O)[C@H](CCC(N)=O)NC(=O)[C@@H]2CCCN2C(=O)[C@H](Cc2c[nH]cn2)NC(=O)[C@H](CCC(=O)O)NC(=O)[C@H](CCC(N)=O)NC(=O)CC[C@H](NC(=O)CC[C@H](NC(=O)CC[C@H](NC(=O)CC[C@H](NC(=O)CCCCCCCCCCCCCCCCC(=O)O)C(=O)O)C(=O)O)C(=O)O)C(=O)O)CSSC[C@@H](C(=O)O)NC(=O)CNC(=O)[C@H](CC(C)C)NC(=O)CNC(=O)[C@H](CO)NC(=O)[C@H](CC(C)C)NC(=O)[C@H](CO)NC(=O)CNC1=O [compound 1389] ({C18 diacid-γGlu-γGlu-γGlu-γGlu}-QEHPQARKYKGAQKKGLSSGCFGLPLDRIGSLSGLGC-OH; disulfide 21-37) | 8.9 mM (≈ 41.8 mg/mL) | 52.3% | 0.426 mM (≈ 2 mg/mL)
5 | CC[C@H](C)[C@@H]1NC(=O)[C@H](CCCNC(=N)N)NC(=O)[C@H](CC(=O)O)NC(=O)[C@H](CC(C)C)NC(=O)[C@@H]2CCCN2C(=O)[C@H](CC(C)C)NC(=O)CNC(=O)[C@H](Cc2ccccc2)NC(=O)[C@@H](NC(=O)CNC(=O)[C@H](CO)NC(=O)[C@H](CO)NC(=O)[C@H](CC(C)C)NC(=O)CNC(=O)[C@H](CCCCN)NC(=O)[C@H](CCCCN)NC(=O)[C@H](CCC(N)=O)NC(=O)[C@H](C)NC(=O)CNC(=O)[C@H](CCC(=O)O)NC(=O)[C@H](Cc2ccc(O)cc2)NC(=O)COCCOCCNC(=O)COCCOCCNC(=O)COCCOCCNC(=O)COCCOCCNC(=O)CC[C@H](NC(=O)CCCCCCCCCCCCCCCCC(=O)O)C(=O)O)CSSC[C@@H](C(=O)O)NC(=O)CNC(=O)[C@H](CC(C)C)NC(=O)CNC(=O)[C@H](CO)NC(=O)[C@H](CC(C)C)NC(=O)[C@H](CO)NC(=O)CNC1=O [compound 1392] ({C18 diacid-γGlu-AEEA-AEEA-AEEA-AEEA}-YEGAQKKGLSSGCFGLPLDRIGSLSGLGC-OH; disulfide 13-29) | – | 29.5% | 9.88 mM (≈ 38.7 mg/mL)
6 | CC[C@H](C)[C@@H]1NC(=O)[C@H](CCCNC(=N)N)NC(=O)[C@H](CC(=O)O)NC(=O)[C@H](CC(C)C)NC(=O)[C@@H]2CCCN2C(=O)[C@H](CC(C)C)NC(=O)CNC(=O)[C@H](Cc2ccccc2)NC(=O)[C@@H](NC(=O)CNC(=O)[C@H](CCC(N)=O)NC(=O)[C@H](CO)NC(=O)[C@H](CC(C)C)NC(=O)CNC(=O)[C@H](CCCCN)NC(=O)[C@H](CCCCN)NC(=O)[C@H](CCC(N)=O)NC(=O)[C@H](C)NC(=O)CNC(=O)[C@H](CCCCN)NC(=O)[C@H](Cc2ccc(O)cc2)NC(=O)[C@H](CCCCN)NC(=O)[C@H](CCCNC(=N)N)NC(=O)[C@H](C)NC(=O)[C@H](CCC(N)=O)NC(=O)[C@@H]2CCCN2C(=O)[C@H](Cc2c[nH]cn2)NC(=O)[C@H](CCC(=O)O)NC(=O)[C@H](CCC(N)=O)NC(=O)COCCOCCNC(=O)COCCOCCNC(=O)CC[C@H](NC(=O)CC[C@H](NC(=O)CC[C@H](NC(=O)CC[C@H](NC(=O)CC[C@H](NC(=O)CC[C@H](NC(=O)CCCCCCCCCCCCCCCCC(=O)O)C(=O)O)C(=O)O)C(=O)O)C(=O)O)C(=O)O)C(=O)O)CSSC[C@@H](C(=O)O)NC(=O)CNC(=O)[C@H](CC(C)C)NC(=O)CNC(=O)[C@H](CO)NC(=O)[C@H](CC(C)C)NC(=O)[C@H](CO)NC(=O)CNC1=O [compound 1402] ({C18 diacid-γGlu-γGlu-γGlu-γGlu-γGlu-γGlu-AEEA-AEEA}-QEHPQARKYKGAQKKGLSQGCFGLPLDRIGSLSGLGC-OH; disulfide 21-37) | – | 57.6% | 10 mM (≈ 53 mg/mL)

From patent US20240209028A1, “CNP COMPOUNDS” (priority 2022, published 2024)
